Data reported in PMC9146896, “Uracil as a Zn-Binding Bioisostere of the Allergic Benzenesulfonamide in the Design of Quinoline–Uracil Hybrids as Anticancer Carbonic Anhydrase Inhibitors” (Pharmaceuticals, 2022).

Key:
[1] = test system: breast cancer cell line (MCF-7); assay: Antiproliferative activity, MTT assay under hypoxic conditions; conditions: Homo sapiens, MCF7, read-out: Cytotoxicity IC50 MCF7
[2] = test system: Bax; assay: Assessment of apoptotic marker levels: Bax in A549; assay type: cell-based
From the text: (§1) The two cytoplasmic proteins, B-cell lymphoma protein 2 (Bcl-2) and its associated X protein (Bax), are essential for apoptosis in normal cells. Bax is a promoter and Bcl-2 is an inhibitor of apoptosis. Thus, the effect of 10d and 10l on apoptotic markers Bax and Bcl-2 in a breast cancer cell line (MCF-7) and a lung cancer cell line (A549) has been estimated.

[3] = test system: Bcl-2; assay: Assessment of apoptotic marker levels: Bcl-2 in A549; assay type: cell-based
From the text: as §1

[4] = test system: Bcl-2; assay: Assessment of apoptotic marker levels: Bcl-2 in MCF-7; assay type: cell-based
From the text: as §1

[5] = test system: Bax; assay: Assessment of apoptotic marker levels: Bax in MCF-7; assay type: cell-based
From the text: as §1

[6] = molecular target: hCA XII (Homo sapiens, UniProt O43570); assay: Carbonic anhydrase inhibition, colorimetric method (BioVision CA Inhibitor Screening Kit); conditions: for Selectivity index I/XII: hCA XII over hCA I; for Selectivity index II/XII: hCA XII over hCA II
[7] = molecular target: hCA IX (Homo sapiens, UniProt Q16790); assay: as above; conditions: for Selectivity index I/IX: hCA IX over hCA I; for Selectivity index II/IX: hCA IX over hCA II
[8] = molecular target: hCA I (Homo sapiens, UniProt P00915); assay: Carbonic anhydrase inhibition, colorimetric method (BioVision CA Inhibitor Screening Kit)
[9] = molecular target: hCA II (Homo sapiens, UniProt P00918); assay: as above
[10] = test system: lung cancer cell line (A549); assay: Antiproliferative activity, MTT assay under hypoxic conditions; assay type: cell-based; conditions: Homo sapiens, read-out: Cytotoxicity IC50 A549

hCA I, sequence (P00915 whole entry): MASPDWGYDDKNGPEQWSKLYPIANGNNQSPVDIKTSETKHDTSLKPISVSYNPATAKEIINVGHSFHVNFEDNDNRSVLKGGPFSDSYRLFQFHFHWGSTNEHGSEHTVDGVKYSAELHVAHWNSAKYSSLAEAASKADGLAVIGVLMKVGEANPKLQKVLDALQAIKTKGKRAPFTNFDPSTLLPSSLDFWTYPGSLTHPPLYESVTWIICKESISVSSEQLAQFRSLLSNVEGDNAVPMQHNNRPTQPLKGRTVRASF
hCA XII, sequence (O43570 25-354): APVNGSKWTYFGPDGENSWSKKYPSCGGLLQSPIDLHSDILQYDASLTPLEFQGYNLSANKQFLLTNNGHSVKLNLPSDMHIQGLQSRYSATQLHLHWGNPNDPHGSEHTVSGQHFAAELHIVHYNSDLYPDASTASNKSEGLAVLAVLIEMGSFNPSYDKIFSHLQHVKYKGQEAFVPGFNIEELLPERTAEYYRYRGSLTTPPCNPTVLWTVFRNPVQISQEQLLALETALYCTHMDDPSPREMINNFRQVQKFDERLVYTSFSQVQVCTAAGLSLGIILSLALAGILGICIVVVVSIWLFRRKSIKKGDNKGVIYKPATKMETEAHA

SMILES | IC50 [6] [nM] | Ki [6] [nM] | Selectivity index I/XII [6] | Selectivity index II/XII [6] | IC50 [7] [nM] | Ki [7] [nM] | Selectivity index I/IX [7] | Selectivity index II/IX [7] | melting point [°C] | IC50 [8] [nM] | Ki [8] [nM] | IC50 [9] [nM] | Ki [9] [nM] | other results
CN[C@@H]1C[C@H]2O[C@@](C)([C@@H]1OC)n1c3ccccc3c3c4c(c5c6ccccc6n2c5c31)C(=O)NC4 [Staurosporine, staurosporine, reference compound] |  |  |  |  |  |  |  |  |  |  |  |  |  | IC50 [1]: 6920 ± 180 nM; Bax [2]: 310.5 ± 9.7 pg/mL; Bcl2 [3]: 3.78 ± 0.14 nm/mL; Bcl2 [4]: 2.829 ± 0.07 nm/mL; Bax [5]: 381.8 ± 11.4 pg/mL
CCn1c(N)c(/N=C/c2cc3cccc(C)c3[nH]c2=O)c(=O)[nH]c1=O [Compound 10f, (E)-6-Amino-1-ethyl-5-(((8-methyl-2-oxo-1,2-dihydroquinolin-3-yl)methylene)amino)pyrimidine-2,4(1H,3H)-dione] | 170 | 90 | 1.95 | 4.72 | 270 | 140 | 1.23 | 2.99 | 278 to 280 | 330 | 180 | 790 | 440 | 
Nc1[nH]c(=O)[nH]c(=O)c1/N=C/c1cc2ccccc2[nH]c1=O [Compound 10a, (E)-6-Amino-5-(((2-oxo-1,2-dihydroquinolin-3-yl)methylene)amino)pyrimidine-2,4(1H,3H)-dione] | 320 | 170 | 3.05 | 1.65 | 250 | 140 | 3.88 | 2.09 | 270 to 272 | 970 | 530 | 520 | 290 | 
Cc1cccc2cc(/C=N/c3c(N)n(C)c(=S)[nH]c3=O)c(=O)[nH]c12 [Compound 10g, (E)-3-(((6-Amino-1-methyl-4-oxo-2-thioxo-1,2,3,4-tetrahydropyrimidin-5-yl)imino)methyl)-8-methylquinolin-2(1H)-one] | 330 | 180 | 6.47 | 10.05 | 1080 | 600 | 1.99 | 3.10 | 265 to 267 | 2160 | 1200 | 3360 | 1860 | 
Nc1c(/N=C/c2cc3ccccc3[nH]c2=O)c(=O)[nH]c(=O)n1Cc1ccccc1 [Compound 10b, (E)-6-Amino-1-benzyl-5-(((2-oxo-1,2-dihydroquinolin-3-yl)methylene)amino) pyrimidine-2,4(1H,3H)-dione] | 350 | 190 | 2.88 | 3.24 | 630 | 350 | 1.60 | 1.81 | 280 to 282 | 1010 | 560 | 1140 | 630 | 
COc1ccc2[nH]c(=O)c(/C=N/c3c(N)n(Cc4ccccc4)c(=O)[nH]c3=O)cc2c1 [Compound 10i, (E)-6-Amino-1-benzyl-5-(((6-methoxy-2-oxo-1,2-dihydroquinolin-3-yl)methylene)amino) pyrimidine-2,4(1H,3H)-dione] | 230 | 130 | 9.07 | 4.60 | 910 | 510 | 2.31 | 1.17 | 291 to 293 | 2110 | 1170 | 1070 | 590 | 
Cn1c(N)c(/N=C/c2cc3ccccc3[nH]c2=O)c(=O)[nH]c1=S [Compound 10e, (E)-3-(((6-Amino-1-methyl-4-Oxo-2-thioxo-1,2,3,4-tetrahydropyrimidin-5-yl)imino)methyl) quinolin-2(1H)-one] | 590 | 330 | 2.12 | 2.06 | 1370 | 760 | 0.91 | 0.88 | 284 to 286 | 1250 | 690 | 1210 | 670 | 
COc1ccc2[nH]c(=O)c(/C=N/c3c(N)n(C)c(=S)[nH]c3=O)cc2c1 [Compound 10l, (E)-3-(((6-Amino-1-methyl-4-oxo-2-thioxo-1,2,3,4-tetrahydropyrimidin-5-yl)imino)methyl)-6-methoxyquinolin-2(1H)-one] | 190 | 110 | 1.29 | 9.75 | 140 | 80 | 1.75 | 13.20 | 295 to 297 | 250 | 140 | 1880 | 1040 | IC50 [1]: 4080 ± 80 nM; Bax [2]: 208.4 ± 4.07 pg/mL; Bax level relative to the control [2]: nearly six-fold; Bcl2 [3]: 4.605 ± 0.28 nm/mL; Bcl-2 level in comparison with the control [3]: downregulated; IC50 [10]: 26100 ± 560 nM; Bcl2 [4]: 3.296 ± 0.09 nm/mL; Bcl-2 level in comparison with the control [4]: downregulated; Bax [5]: 337.2 ± 7.55 pg/mL; Bax level relative to the control [5]: nearly six-fold
CCn1c(N)c(/N=C/c2cc3cc(OC)ccc3[nH]c2=O)c(=O)[nH]c1=O [Compound 10j, (E)-6-Amino-1-ethyl-5-(((6-methoxy-2-oxo-1,2-dihydroquinolin-3-yl)methylene)amino)pyrimidine-2,4(1H,3H)-dione] | 620 | 340 | 1.43 | 4.18 | 870 | 480 | 1.02 | 2.98 | 287 to 289 | 890 | 490 | 2600 | 1440 | 
CCn1c(N)c(/N=C/c2cc3ccccc3[nH]c2=O)c(=O)[nH]c1=O [Compound 10c, (E)-6-Amino-1-ethyl-5-(((2-oxo-1,2-dihydroquinolin-3-yl)methylene)amino)pyrimidine-2,4(1H,3H)-dione] | 490 | 270 | 3.62 | 1.37 | 400 | 220 | 4.37 | 1.65 | 290 to 292 | 1760 | 970 | 660 | 370 | 
Cn1c(N)c(/N=C/c2cc3ccccc3[nH]c2=O)c(=O)[nH]c1=O [Compound 10d, (E)-6-Amino-1-methyl-5-(((2-oxo-1,2-dihydroquinolin-3-yl)methylene)amino) pyrimidine-2,4(1H,3H)-dione] | 190 | 110 | 1.24 | 1.37 | 220 | 120 | 1.09 | 1.21 | 298 to 300 | 230 | 130 | 260 | 140 | IC50 [1]: 2870 ± 50 nM; Bax [2]: 278.6 ± 9.14 pg/mL; Bax level relative to the control [2]: nearly six-fold; Bcl2 [3]: 2.841 ± 0.01 nm/mL; Bcl-2 level in comparison with the control [3]: downregulated; IC50 [10]: 11800 ± 220 nM; Bcl2 [4]: 2.587 ± 0.03 nm/mL; Bcl-2 level in comparison with the control [4]: downregulated; Bax [5]: 403.1 ± 4.69 pg/mL; Bax level relative to the control [5]: nearly six-fold
COc1ccc2[nH]c(=O)c(/C=N/c3c(N)[nH]c(=O)[nH]c3=O)cc2c1 [Compound 10h, (E)-6-Amino-5-(((6-methoxy-2-oxo-1,2-dihydroquinolin-3-yl)methylene)amino) pyrimidine-2,4(1H,3H)-dione] | 400 | 220 | 8.00 | 11.16 | 600 | 330 | 5.39 | 7.52 | 275 to 277 | 3230 | 1780 | 4500 | 2490 | 
COc1ccc2[nH]c(=O)c(/C=N/c3c(N)n(C)c(=O)[nH]c3=O)cc2c1 [Compound 10k, (E)-6-Amino-5-(((6-methoxy-2-oxo-1,2-dihydroquinolin-3-yl)methylene)amino)-1-methyl pyrimidine-2,4(1H,3H)-dione] | 540 | 300 | 3.96 | 12.26 | 1280 | 710 | 1.66 | 5.14 | 293 to 295 | 2120 | 1170 | 6570 | 3630 | 
